Values joined by “and” are separate entries in the source; they are usually repeats but may differ in a detail not shown here. Identical values can stand only once.
Experiments:
Assay type in all cases: functional
[1] = molecular target: T1, Histidine--tRNA ligase (Leishmania infantum, UniProt A4I591); test: Leishmania infantum Histidine tRNA synthetase (LdHisRS)
T1 sequence (A4I591 whole entry): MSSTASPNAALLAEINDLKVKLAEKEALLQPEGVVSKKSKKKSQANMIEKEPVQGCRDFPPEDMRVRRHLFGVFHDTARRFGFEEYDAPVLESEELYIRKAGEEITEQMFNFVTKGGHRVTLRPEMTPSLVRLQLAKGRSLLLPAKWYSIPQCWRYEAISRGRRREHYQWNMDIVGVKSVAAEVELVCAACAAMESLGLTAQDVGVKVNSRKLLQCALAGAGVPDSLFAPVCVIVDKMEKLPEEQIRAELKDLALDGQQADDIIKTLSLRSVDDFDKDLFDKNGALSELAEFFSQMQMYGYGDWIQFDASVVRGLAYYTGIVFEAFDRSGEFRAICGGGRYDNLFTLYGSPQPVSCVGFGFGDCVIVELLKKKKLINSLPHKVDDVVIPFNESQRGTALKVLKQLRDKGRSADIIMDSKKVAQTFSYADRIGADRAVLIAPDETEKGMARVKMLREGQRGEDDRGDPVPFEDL

[2] = molecular target: Lysine--tRNA ligase (Plasmodium falciparum (isolate 3D7), UniProt Q8IDJ8); test: Pf-KRS-1 (Lysyl-RNA Synthetase-1, KRS-1, cytosolic KRS) from Plasmodium falciparum. Inhibitor assay, 384 well plate, luminescence read.
[3] = molecular target: Protein translocase subunit SecA (Escherichia coli (strain K12), UniProt P10408); test: Assay to Identify E. coli SecA ATPase Inhibitors
[4] = molecular target: T2, Histidine--tRNA ligase (Trypanosoma cruzi (strain CL Brener), UniProt Q4DA54); test: Trypanosoma cruzi histidyl tRNA synthetase (Tc-HisRS)
T2 sequence (Q4DA54 whole entry): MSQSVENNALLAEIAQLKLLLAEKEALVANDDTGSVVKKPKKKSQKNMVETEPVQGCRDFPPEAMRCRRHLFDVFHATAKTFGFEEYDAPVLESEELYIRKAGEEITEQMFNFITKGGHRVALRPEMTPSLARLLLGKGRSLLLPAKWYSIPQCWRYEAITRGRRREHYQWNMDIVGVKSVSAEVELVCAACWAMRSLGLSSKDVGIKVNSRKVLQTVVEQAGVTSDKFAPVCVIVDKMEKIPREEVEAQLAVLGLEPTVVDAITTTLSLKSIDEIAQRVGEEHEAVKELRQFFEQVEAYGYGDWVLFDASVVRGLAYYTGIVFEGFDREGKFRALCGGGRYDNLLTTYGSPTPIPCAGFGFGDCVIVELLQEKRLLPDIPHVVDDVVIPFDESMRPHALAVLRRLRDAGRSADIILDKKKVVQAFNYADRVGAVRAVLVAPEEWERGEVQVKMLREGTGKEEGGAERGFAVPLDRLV

[5] = molecular target: T3, Ubiquitin-activating enzyme e1, putative (Leishmania donovani (strain BPK282A1), UniProt E9BSI1); test: Leishmania donovani Ubiquitin Activating Enzyme (LdE1)
T3 sequence (E9BSI1 whole entry): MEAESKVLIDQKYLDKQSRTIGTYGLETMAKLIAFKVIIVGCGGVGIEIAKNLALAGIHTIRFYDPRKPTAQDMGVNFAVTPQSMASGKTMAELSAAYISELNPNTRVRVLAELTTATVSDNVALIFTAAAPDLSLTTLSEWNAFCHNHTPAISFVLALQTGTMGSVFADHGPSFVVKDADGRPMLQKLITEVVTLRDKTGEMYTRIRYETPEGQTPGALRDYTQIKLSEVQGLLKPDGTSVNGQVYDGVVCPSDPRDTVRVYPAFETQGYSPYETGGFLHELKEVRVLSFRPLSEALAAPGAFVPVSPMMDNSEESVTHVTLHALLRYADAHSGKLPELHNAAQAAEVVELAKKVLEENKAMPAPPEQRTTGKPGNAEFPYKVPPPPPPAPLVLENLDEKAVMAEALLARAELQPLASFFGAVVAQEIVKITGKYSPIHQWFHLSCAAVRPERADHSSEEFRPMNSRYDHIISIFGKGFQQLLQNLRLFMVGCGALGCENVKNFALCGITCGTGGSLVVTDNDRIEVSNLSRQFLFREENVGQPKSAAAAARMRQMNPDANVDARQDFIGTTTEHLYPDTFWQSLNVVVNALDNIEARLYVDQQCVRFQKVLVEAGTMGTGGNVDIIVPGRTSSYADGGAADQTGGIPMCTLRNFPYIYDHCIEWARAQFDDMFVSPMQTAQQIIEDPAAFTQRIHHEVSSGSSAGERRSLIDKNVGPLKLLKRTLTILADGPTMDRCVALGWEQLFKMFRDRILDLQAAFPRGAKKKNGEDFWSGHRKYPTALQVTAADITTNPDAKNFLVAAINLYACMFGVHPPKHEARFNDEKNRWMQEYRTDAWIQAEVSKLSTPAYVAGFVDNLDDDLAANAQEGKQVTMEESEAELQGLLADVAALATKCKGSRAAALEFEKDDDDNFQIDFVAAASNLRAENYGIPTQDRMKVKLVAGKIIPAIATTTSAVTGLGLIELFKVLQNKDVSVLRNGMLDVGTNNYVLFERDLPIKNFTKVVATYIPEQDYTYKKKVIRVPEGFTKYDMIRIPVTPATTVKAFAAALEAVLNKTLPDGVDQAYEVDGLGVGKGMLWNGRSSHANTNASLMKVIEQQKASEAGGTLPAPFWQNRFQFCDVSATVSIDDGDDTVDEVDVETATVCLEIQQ

[6] = molecular target: ClpP1P2 (Mycobacterium tuberculosis (strain ATCC 25618 / H37Rv), UniProt P9WPC3+P9WPC5); test: in vitro assay to detect presence of AMC directly proportional to the activity of ClpP1P2. GHDDI collaboration.
[7] = molecular target: T4, Shiga toxin 2 (Escherichia coli O157:H7, UniProt P09385+P09386); test: E. coli 0.157:H7 Shiga Toxin SOP - stx2 screening assay
T4 sequence (P09385 whole entry): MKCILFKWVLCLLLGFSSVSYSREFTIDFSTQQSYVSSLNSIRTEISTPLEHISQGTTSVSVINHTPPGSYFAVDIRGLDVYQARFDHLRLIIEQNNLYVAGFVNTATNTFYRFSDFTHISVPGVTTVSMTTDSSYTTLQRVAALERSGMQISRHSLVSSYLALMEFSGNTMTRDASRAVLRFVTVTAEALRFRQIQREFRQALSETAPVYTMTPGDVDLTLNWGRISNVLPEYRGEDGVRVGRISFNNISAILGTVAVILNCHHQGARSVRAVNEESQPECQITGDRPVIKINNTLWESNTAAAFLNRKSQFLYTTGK
T4 sequence (P09386 whole entry): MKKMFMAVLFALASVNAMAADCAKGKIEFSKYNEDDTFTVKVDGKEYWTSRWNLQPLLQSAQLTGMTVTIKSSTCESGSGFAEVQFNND

ClpP1P2, sequence (P9WPC5 whole entry): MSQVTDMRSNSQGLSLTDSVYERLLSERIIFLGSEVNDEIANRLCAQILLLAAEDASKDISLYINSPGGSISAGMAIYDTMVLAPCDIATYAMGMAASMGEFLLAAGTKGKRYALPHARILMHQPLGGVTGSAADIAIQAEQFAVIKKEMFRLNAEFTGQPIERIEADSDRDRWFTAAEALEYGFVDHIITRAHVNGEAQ
ClpP1P2, sequence (P9WPC3 whole entry): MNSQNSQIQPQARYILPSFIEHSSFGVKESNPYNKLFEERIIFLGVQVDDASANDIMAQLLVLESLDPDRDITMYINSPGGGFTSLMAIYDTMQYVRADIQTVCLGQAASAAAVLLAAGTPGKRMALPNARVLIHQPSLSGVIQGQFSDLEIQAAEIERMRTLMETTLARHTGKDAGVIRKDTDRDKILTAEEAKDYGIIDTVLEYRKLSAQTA
Lysine--tRNA ligase, sequence (Q8IDJ8 whole entry): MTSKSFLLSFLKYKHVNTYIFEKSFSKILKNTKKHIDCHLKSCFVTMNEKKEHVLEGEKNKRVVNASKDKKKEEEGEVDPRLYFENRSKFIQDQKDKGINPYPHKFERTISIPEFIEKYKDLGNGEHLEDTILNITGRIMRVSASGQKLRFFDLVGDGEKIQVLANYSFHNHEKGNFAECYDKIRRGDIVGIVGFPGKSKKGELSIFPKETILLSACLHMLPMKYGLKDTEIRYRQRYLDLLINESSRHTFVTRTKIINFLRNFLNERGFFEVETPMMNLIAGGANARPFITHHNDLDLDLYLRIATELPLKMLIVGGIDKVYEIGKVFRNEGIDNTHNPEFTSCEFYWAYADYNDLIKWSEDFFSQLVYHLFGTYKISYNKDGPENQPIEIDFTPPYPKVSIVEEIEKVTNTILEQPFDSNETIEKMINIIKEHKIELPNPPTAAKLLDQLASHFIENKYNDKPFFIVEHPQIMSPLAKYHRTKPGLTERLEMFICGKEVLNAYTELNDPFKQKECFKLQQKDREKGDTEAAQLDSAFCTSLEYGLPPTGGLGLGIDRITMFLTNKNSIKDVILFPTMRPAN
Protein translocase subunit SecA, sequence (P10408 whole entry): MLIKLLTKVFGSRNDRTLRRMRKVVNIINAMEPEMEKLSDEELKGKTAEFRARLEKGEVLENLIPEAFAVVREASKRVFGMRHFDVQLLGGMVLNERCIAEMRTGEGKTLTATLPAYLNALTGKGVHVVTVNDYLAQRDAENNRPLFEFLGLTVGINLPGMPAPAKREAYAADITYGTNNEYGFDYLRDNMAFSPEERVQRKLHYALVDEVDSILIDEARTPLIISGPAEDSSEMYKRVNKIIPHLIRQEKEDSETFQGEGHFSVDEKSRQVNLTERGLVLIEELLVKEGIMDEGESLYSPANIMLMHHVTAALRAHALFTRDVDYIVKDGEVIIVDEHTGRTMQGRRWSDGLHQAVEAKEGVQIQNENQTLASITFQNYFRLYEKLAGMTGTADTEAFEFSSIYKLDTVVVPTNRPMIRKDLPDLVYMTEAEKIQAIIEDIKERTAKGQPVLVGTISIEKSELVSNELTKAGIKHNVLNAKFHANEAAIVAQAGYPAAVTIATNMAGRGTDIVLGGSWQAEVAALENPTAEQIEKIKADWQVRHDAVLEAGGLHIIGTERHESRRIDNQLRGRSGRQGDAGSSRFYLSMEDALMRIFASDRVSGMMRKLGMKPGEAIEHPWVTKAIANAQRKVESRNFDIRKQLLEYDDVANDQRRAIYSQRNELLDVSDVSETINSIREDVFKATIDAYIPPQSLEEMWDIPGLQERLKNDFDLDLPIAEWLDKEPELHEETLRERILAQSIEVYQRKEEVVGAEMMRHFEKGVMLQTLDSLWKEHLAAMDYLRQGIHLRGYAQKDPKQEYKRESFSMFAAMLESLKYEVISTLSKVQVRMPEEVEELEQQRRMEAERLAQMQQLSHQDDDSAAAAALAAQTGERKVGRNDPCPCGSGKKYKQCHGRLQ

Compound | IC50 [2] [µM] | IC50 [3] | IC50 [4] | IC50 [7] [µM] | also measured
COc1ccc(C2CC(=O)Nc3nc(N4CCOCC4)sc32)c(OC)c1 (configuration not stated) | > 50.1 | > 100 µM and 33.8 µM | 2.24 µM and 2.8 µM |  | IC50 [1]: 0.231 µM and 0.259 µM and 0.28 µM; IC50 [5]: > 100 µM; IC50 [6]: > 100 µM
CC(C)c1cc(C(F)(F)F)n2nc(CCC(=O)O)nc2n1 |  |  |  | > 100 | 
CCOc1ccnc(N2CCN(C(=O)c3cccc(C#N)c3)CC2)n1 |  |  |  | > 100 | 
NCc1cn(-c2ccccc2C(=O)NCc2cccc(Cl)c2)cn1 |  |  |  | > 100 | 
CNc1nc2c(s1)C(c1cccc(F)c1F)CC(=O)N2 (configuration not stated) | > 50.1 | 93.5 µM and 33.1 µM | 22.5 µM and 14.6 µM |  | IC50 [6]: > 100 µM
CNc1nc2c(s1)C(c1cc(Cl)ccc1F)CC(=O)N2 (configuration not stated) | > 50.1 | > 100 µM | 19.4 µM and 20.6 µM |  | IC50 [6]: > 100 µM
CNc1nc2c(s1)C(c1ccc(F)cc1Cl)CC(=O)N2 (configuration not stated) | > 50.1 | > 100 µM | 22.8 µM and 15.7 µM |  | 
O=C1CC(c2ccccc2C(F)(F)F)c2sc(N3CCOCC3)nc2N1 (configuration not stated) | > 50.1 | > 100 µM | 10.8 µM and 16.3 µM |  | IC50 [5]: > 100 µM; IC50 [6]: > 100 µM
Nc1cc(CCC2CN(Cc3ccc(C(=O)O)cc3)CCO2)ccn1 (configuration not stated) |  |  |  | > 100 | 
COCC(C)NC(=O)c1cn(C(C)(C)C)c2ncccc12 (configuration not stated) |  | > 100 µM |  |  | 
Cc1ccc2c(ccn2CCC(=O)O)c1 |  | > 100 µM |  |  | 
CNc1nc2c(s1)C(c1ccccc1F)CC(=O)N2 (configuration not stated) | > 50.1 | > 100 µM and 93.8 µM | 5.69 µM and 4.89 µM |  | IC50 [1]: 2.32 µM and 2.22 µM and 2.27 µM and 2.53 µM; IC50 [6]: > 100 µM
CCn1cc(CN(C)S(=O)(=O)c2cnn(CC)c2C)c(C)n1 |  | > 100 µM |  |  | 
COc1ccc(C)cc1CN(C)Cc1nc2c(cnn2C)c(=O)[nH]1 |  |  |  | > 100 | 
COc1ncc(C2(O)CCN(Cc3c(F)cccc3F)CC2)c(OC)n1 |  |  |  | > 100 | 
COc1ccccc1C1CC(=O)Nc2nc(N3CCCCC3)sc21 (configuration not stated) | > 50.1 | 22.1 µM and 29.4 µM | 2.4 µM and 1.34 µM |  | IC50 [1]: 0.231 µM; IC50 [5]: 54.8 µM and 48.5 µM; IC50 [6]: > 100 µM
COCc1c(C(=O)NC2CCCC2)nnn1-c1ccc(C)cc1 |  | > 100 µM |  |  | 
Cc1nccn1-c1cccc(C2CCCN2S(=O)(=O)c2cn(C)cn2)n1 (configuration not stated) |  |  |  | > 100 | 
COCCn1ccc2cc(NC(C)=O)ccc21 |  | > 100 µM |  |  | 
O=S(=O)(c1ccccc1)N1CCCCC1c1cc[nH]n1 (configuration not stated) |  |  |  | > 100 | 
CCOc1ccccc1C(=O)N1CCCC1c1ncc2c(n1)CCNC2 (configuration not stated) |  |  |  | > 100 | 
CNc1nc2c(s1)C(c1ccccc1Cl)CC(=O)N2 (configuration not stated) | > 50.1 | > 100 µM | 6.72 µM and 7.27 µM |  | IC50 [1]: 2.19 µM and 2.57 µM and 2.79 µM and 2.64 µM
CCOC(=O)c1sc2ccsc2c1CN |  |  |  | > 100 | 
